Measured values: US9090549B2, “1,4-naphthoquinones derivatives and therapeutic use thereof” (CENTRE NATIONAL DE LA RECHERCHE SCIENTIFIQUE (C.N.R.S.), priority 2008, dated 2015)
Where two headings read alike, the source gives them in different places.

Key:
[1] = system: Pf-GHA; test: Pf-GHA growth inhibition, colorimetric NBT-based lactate dehydrogenase assay; type: cell-based; conditions: Plasmodium falciparum, read-out: IC50 against Pf-GHA
Method: The IC50 values against Pf-GHA and MRC-5 were determined by using the less sensitive colorimetric NBT-based lactate dehydrogenase assay (Makler et al, Am. J. Trop. Med. Hyg. 1993, 48 (6), 739-741) based on redox-reactions.
In Vitro Antiparasitic Bioassays. The strain is maintained in RPMI-1640 medium supplemented with 0.37 mM hypoxanthine, 25 mM HEPES, 25 mM NaHCO3, and 10% O^+ human serum together with 2-4% washed human O^+ erythrocytes. All cultures and assays are conducted under an atmosphere of 4% CO2, 3% O2 and 93% N2. Assays are performed in 96-well microtiter plates, each well containing 10 μL of the watery compound dilutions together with 190 μL of the malaria parasite inoculum (1% parasitaemia, 2% HCT). After 72 h incubation, plates are frozen and stored at −20° C. After thawing, 20 μL of each well is transferred into another plate together with 100 μL Malstat reagent and 20 μL of 1/1 mixture of PES (phenazine ethosulfate, 0.1 mg/mL) and NBT (Nitro Blue Tetrazolium Grade III, 2 mg/mL). Change in colour is measured spectrophotometrically at 655 nm. The results are expressed as % reduction in parasitaemia compared to control wells. Compounds are treated at 5 concentrations (64-16-4-1 and 0.25 μM or μg/mL).

[2] = system: P. falciparum multidrug-resistant strain Dd2; test: Dd2 growth inhibition, 3H-hypoxanthine assay; type: cell-based, Plasmodium falciparum; conditions: for IC50: Plasmodium falciparum, DD2, 48 h exposure then 24 h hypoxanthine, read-out: IC50 against Dd2
Method: The IC50 was tested by standard in vitro antiproliferation assays (Desjardins et al, 1979 Antimicrob. Agents Chemother 1979, 16, 710-718). Infected erythrocytes in ring stage (0.5% parasitemia, 2.5% hematocrit) in 96-well plates were exposed to the compounds for 48 h and then to radioactive hypoxanthine for 24 h. The amount of radioactivity in precipitable material served as an index of cell proliferation.

[3] = system: P. berghei ANKA; test: In vivo 4-day suppressive test in P. berghei-infected mice; set-up: species or system Plasmodium berghei; conditions: intraperitoneal
Method: The in vivo tests in the mouse model were done according to a standard protocol (Peters et al Handbook of Animal Models of Infection; Academic Press, London, 1999; pp. 756-771). […] […] For administration, compounds were freshly prepared in 10% DMSO in sterile phosphate-buffered saline the day of use. Two hours post-infection mice received the first treatment by the intraperitoneal route. Mice were further treated on days +1-3. Blood films from tail blood were prepared on day +4, and parasitaemia was determined by microscopic examination of Giemsa-stained blood films. […] […] Mice were treated and levels of parasitemia determined as described.

| Structure (SMILES) | melting point | further results |
| --- | --- | --- |
| C[C@H]1[C@H](OC(=O)CCC(=O)O)O[C@@H]2O[C@@]3(C)CC[C@H]4[C@H](C)CC[C@@H]1[C@@]24OO3 [Artesunate, reference compound] | – | IC50 ([1]; 72 h): 5 nM |
| O=C1C=C(C(F)F)C(=O)c2ccccc21 [HB49, 2-Difluoromethyl-1,4-naphthoquinone] | 74 °C | – |
| COc1c(C)c(C(O)c2ccc(Br)cc2)c(OC)c2ccccc12 (stereo not shown) [P_TM7, (4-Bromo-phenyl)-(1,4-dimethoxy-3-methyl-naphthalen-2-yl)-methanol] | 67 to 68 °C | – |
| CC1=C(C(=O)c2ccc(C(=O)O)cc2)C(=O)C2C=CC=CC2C1=O (stereo not shown) [P_TM22, 4-(3-Methyl-1,4-dioxo-1,4,4a,8a-tetrahydro-naphthalene-2-carbonyl)-benzoic acid] | 201 °C (dec.) | – |
| CC1=C(Cc2ccc(F)cc2)C(=O)C2C=CC=CC2C1=O (stereo not shown) [P_TM26, 2-Methyl-3-(4-fluoro-benzyl)-4a,8a-dihydro-[1,4]naphthoquinone] | 118 to 119 °C | – |
| COC(=O)c1ccc(C(=O)C2=C(C)C(=O)c3ccccc3C2=O)cc1 [P_TM28, 4-(3-Methyl-1,4-dioxo-1,4-dihydro-naphthalene-2-carbonyl)-benzoic acid methyl ester] | 162 °C | – |
| CC1=C(Cc2ccc(Cl)cc2)C(=O)C2C=CC=CC2C1=O (stereo not shown) [P_TM30, 2-Methyl-3-(4-chloro-benzyl)-4a,8a-dihydro-[1,4]naphthoquinone] | 134 to 135 °C | IC50 [2]: < 100 nM; IC50 ([1]; 72 h incubation): < 5000 nM |
| COc1ccc(CC2=C(C)C(=O)C3C=CC=CC3C2=O)cc1 (stereo not shown) [P_TM31, 2-Methyl-3-(4-methoxy-benzyl)-4a,8a-dihydro-[1,4]naphthoquinone] | 112 to 113 °C | IC50 [2]: < 100 nM |
| COc1ccccc1CC1=C(C)C(=O)C2C=CC=CC2C1=O (stereo not shown) [P_TM32, 2-Methyl-3-(2-methoxy-benzyl)-4a,8a-dihydro-[1,4]naphthoquinone] | 117 to 118 °C | IC50 [2]: < 100 nM |
| COc1ccccc1C(=O)C1=C(C)C(=O)C2C=CC=CC2C1=O (stereo not shown) [P_TM35, 2-Methyl-3-(2-methoxy-benzoyl)-4a,8a-dihydro-[1,4]naphthoquinone] | 146 to 147 °C | – |
| CC1=C(Cc2ccc([N+](=O)[O-])cc2)C(=O)C2C=CC=CC2C1=O (stereo not shown) [P_TM37, 2-Methyl-3-(4-nitro-benzyl)-4a,8a-dihydro-[1,4]naphthoquinone] | 156 to 157 °C | reduction in parasitaemia ([3]; daily dose of 30 mg/kg, 4-day test, mice): 42.4%; activity on 4-day treatment ([3]; P. berghei-infected mice): significant activity |
| CC1=C(C(=O)c2ccc(Cl)cc2)C(=O)C2C=CC=CC2C1=O (stereo not shown) [P_TM38, 2-Methyl-3-(4-chloro-benzoyl)-4a,8a-dihydro-[1,4]naphthoquinone] | – | IC50 ([1]; 72 h incubation): < 5000 nM |
| CC1=C(Cc2ccc(C#N)cc2)C(=O)C2C=CC=CC2C1=O (stereo not shown) [P_TM41, 2-Methyl-3-(4-cyano-benzyl)-4a,8a-dihydro-[1,4]naphthoquinone] | 159 to 160 °C | IC50 [2]: < 100 nM; IC50 ([1]; 72 h incubation): < 5000 nM |
| CC1=C(Cc2ccc(Br)cc2)C(=O)C2C(O)=CC=CC2C1=O (stereo not shown) [P_TM42, 3-(4-Bromo-benzyl)-5-hydroxy-2-methyl-4a,8a-dihydro-[1,4]naphthoquinone] | 163 to 164 °C | IC50 ([1]; 72 h incubation): < 5000 nM |
| CC1=C(Cc2ccc(NC(=O)OC(C)(C)C)cc2)C(=O)C2C=CC=CC2C1=O (stereo not shown) [P_TM45, [4-(3-Methyl-1,4-dioxo-1,4,4a,8a-tetrahydro-naphthalen-2-ylmethyl)-phenyl]-carbamic acid tert-butyl ester] | 148 to 149 °C | – |
| CC1=C(C(=O)c2ccc(C#N)cc2)C(=O)C2C=CC=CC2C1=O (stereo not shown) [P_TM46, 2-Methyl-3-(4-cyano-benzoyl)-4a,8a-dihydro-[1,4]naphthoquinone] | 185 to 186 °C | IC50 ([1]; 72 h incubation): < 5000 nM |
| CC1=C(C(=O)c2ccc(C(C)(C)C)cc2)C(=O)C2C=CC=CC2C1=O (stereo not shown) [P_TM48, 2-Methyl-3-(4-tertbutyl-benzoyl)-4a,8a-dihydro-[1,4]naphthoquinone] | 64 to 65 °C | – |
| CC1=C(Cc2ccc(C(=O)O)cc2)C(=O)C2C=CC=CC2C1=O (stereo not shown) [P_TM50, 4-(3-Methyl-1,4-dioxo-1,4,4a,8a-tetrahydro-naphthalen-2-ylmethyl)-benzoic acid] | 206 to 208 °C | – |

| Structure (SMILES) | melting point | further results |
| --- | --- | --- |
| CC1=C(Cc2ccc(C(=O)NCCC#N)cc2)C(=O)C2C=CC=CC2C1=O (stereo not shown) [P_TM53, N-(2-Cyano-ethyl)-4-(3-methyl-1,4-dioxo-1,4,4a,8a-tetrahydronaphthalen-2-ylmethyl)-benzamide] | 131 to 132 °C | – |
| COc1ccc(CC2=C(C)C(=O)C3C=CC=CC3C2=O)cc1OC (stereo not shown) [P_TM54, 2-(3,4-Dimethoxy-benzyl)-3-methyl-4a,8a-dihydro-[1,4]naphthoquinone] | 102 to 103 °C | – |
| COc1ccc(CC2=C(C)C(=O)C3C=CC=CC3C2=O)c(OC)c1 (stereo not shown) [P_TM56, 2-(2,4-Dimethoxy-benzyl)-3-methyl-4a,8a-dihydro-[1,4]naphthoquinone] | 103 to 105 °C | – |
| COc1cc(CC2=C(C)C(=O)C3C=CC=CC3C2=O)cc(OC)c1 (stereo not shown) [P_TM58, 2-(3,5-Dimethoxy-benzyl)-3-methyl-4a,8a-dihydro-[1,4]naphthoquinone] | 127 to 128 °C | IC50 [2]: < 100 nM; IC50 ([1]; 72 h incubation): < 5000 nM |
| COc1ccc(OC)c(CC2=C(C)C(=O)C3C=CC=CC3C2=O)c1 (stereo not shown) [P_TM60, 2-(2,5-Dimethoxy-benzyl)-3-methyl-4a,8a-dihydro-[1,4]naphthoquinone] | 140 to 142 °C | IC50 [2]: < 100 nM |
| CC1=C(Cc2ccccc2)C(=O)C2C=CC=CC2C1=O (stereo not shown) [P_TM62, 2-Methyl-3-benzyl-4a,8a-dihydro-[1,4]naphthoquinone] | 103 to 104 °C | antimalarial activity against Dd2 ([2]; compared with substituted benzyl derivatives): less active |
| CC1=C(Cc2ccc(-c3ccc(C(C)(C)C)cc3)cc2)C(=O)c2ccccc2C1=O [P_TM66, 2-(4′-tert-Butyl-biphenyl-4-ylmethyl)-3-methyl-[1,4]naphthoquinone] | 112 to 114 °C | IC50 ([1]; 72 h incubation): < 5000 nM |
| CCCCC(C1=C(C)C(=O)c2ccccc2C1=O)c1ccc(-c2ccc([N+](=O)[O-])cc2)cc1 (stereo not shown) [P_TM67, 2-(4′-nitro-Butyl-biphenyl-4-ylmethyl)-3-methyl-[1,4]naphthoquinone] | – | IC50 ([1]; 72 h incubation): < 5000 nM |
| COc1c(C)c(Cc2ccc(Cl)cc2)c(OC)c2ccccc12 [P_TM75, 2-(4-Chloro-benzyl)-1,4-dimethoxy-3-methyl-naphthalene] | 101 to 102 °C | – |
| COc1c(C)c(Cc2ccc(N3CCN(Cc4ccc(C(C)(C)C)cc4)CC3)cc2)c(OC)c2ccccc12 [P_TM78, 1-(4-tert-Butyl-benzyl)-4-[4-(1,4-dimethoxy-3-methyl-naphthalen-2-ylmethyl)-phenyl]piperazine] | 63 to 65 °C | – |
| CC1=C(Cc2ccc(C(C)(C)C)cc2)C(=O)c2c(O)cccc2C1=O [P_TM81, 3-(4-tert-Butyl-benzyl)-5-hydroxy-2-methyl-[1,4]naphthoquinone] | 112 to 113 °C | IC50 ([1]; 72 h incubation): < 5000 nM |
| COc1cccc(CC2=C(C)C(=O)c3ccccc3C2=O)c1 [P_TM96, 2-(3-Methoxy-benzyl)-3-methyl-[1,4]naphthoquinone] | 87 to 88 °C | – |
| CC1=C(Cc2cccc(Br)c2)C(=O)C2C=CC=CC2C1=O (stereo not shown) [P_TM99, 2-Methyl-3-(3-bromo-benzyl)-4a,8a-dihydro-[1,4]naphthoquinone] | 108 to 109 °C | – |
| CC1=C(Cc2ccc(C(C)C)cc2)C(=O)C2C=CC=CC2C1=O (stereo not shown) [P_TM100, 2-Methyl-3-(4-isopropyl-benzyl)-4a,8a-dihydro-[1,4]naphthoquinone] | 64 to 65 °C | – |
| O=C1C(Cc2ccc(Br)cc2)=C(C(F)F)C(=O)c2ccccc21 [P_TM101, 2-(4-Bromo-benzyl)-3-difluoromethyl-[1,4]naphthoquinone] | 103 to 104 °C | – |
| CC1=C(Cc2ccc(N)cc2)C(=O)C2C=CC=CC2C1=O (stereo not shown) [P_TM103, 2-Methyl-3-(4-amino-benzyl)-4a,8a-dihydro-[1,4]naphthoquinone] | 152 to 153 °C | – |
| O=C1C(O)=C([C@H]2CC[C@H](c3ccc(Cl)cc3)CC2)C(=O)c2ccccc21 [atovaquone, reference compound] | – | IC50 [2]: < 0.1 nM; IC50 ([1]; 72 h incubation): 310 nM |
